ChEMBL document CHEMBL1201862, “PubChem BioAssay data set” (2004)
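Five compound concentrations were applied to cells in 96-well plates for 48 hours; endpoints were derived by simple linear interpolation of the resulting dose-response curve. At the GI50, growth is halved.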 The source made the active and inactive calls. Rule as the data show it: active = GI50 up to about 1.1 µM and inactive = higher.

Tests used:
Assay in all cases: growth of human tumour cells (NCI), 48 h
[1] = system: COLO 205
[2] = system: SNB-19
[3] = system: HT-29
[4] = system: SF-295
[5] = system: T47D
[6] = system: SK-MEL-2
[7] = system: MDA-MB-435
[8] = system: SK-OV-3
[9] = system: LOX IMVI
[10] = system: TK-10
[11] = system: SR
[12] = system: OVCAR-5
[13] = system: UO-31
[14] = system: MCF7
[15] = system: CAKI-1
[16] = system: SF-268
[17] = system: SF-539
[18] = system: NCI/ADR-RES
[19] = system: ACHN
[20] = system: SK-MEL-5

Compound	GI50 [1]	GI50 [2]	GI50 [3]	GI50 [4]	GI50 [5]	GI50 [6]	GI50 [7]	GI50 [8]	GI50 [9]	GI50 [10]	GI50 [11]	GI50 [12]	GI50 [13]	GI50 [14]	GI50 [15]	GI50 [16]	GI50 [17]	GI50 [18]	GI50 [19]	GI50 [20]
C/C(=N\Nc1nc2ccccc2[nH]1)c1cc2ccccc2cn1	< 0.01 µM (active)	0.277 µM (active)	0.0104 µM (active)	0.166 µM (active)	< 0.0352 µM (active)	0.508 µM (active)	0.182 µM (active)	0.0465 µM (active)	0.051 µM (active)	0.122 µM (active)	0.0281 µM (active)	0.288 µM (active)	0.0115 µM (active)	< 0.01 µM (active)	< 0.01 µM (active)	0.0399 µM (active)	0.1 µM (active)	0.0284 µM (active)	< 0.0139 µM (active)	0.0494 µM (active)
O=C1CC(=O)c2c(N3CCCC3)sc(N3CCCC3)c21	> 100 µM (inactive)	> 100 µM (inactive)	> 100 µM (inactive)	> 100 µM (inactive)	> 100 µM (inactive)	> 100 µM (inactive)	> 100 µM (inactive)	> 100 µM (inactive)	> 100 µM (inactive)	> 100 µM (inactive)	> 100 µM (inactive)	> 100 µM (inactive)	> 100 µM (inactive)	> 100 µM (inactive)	> 100 µM (inactive)	> 100 µM (inactive)	> 100 µM (inactive)	> 100 µM (inactive)	> 100 µM (inactive)	> 100 µM (inactive)
CCO/C=C1\SC(=S)N(c2ccc(OCC)cc2)C1=O	> 100 µM (inactive)	> 100 µM (inactive)	> 100 µM (inactive)	95.3 µM (inactive)	28.9 µM (inactive)	59.4 µM (inactive)	78.5 µM (inactive)	> 100 µM (inactive)	83.6 µM (inactive)	90.4 µM (inactive)	30.2 µM (inactive)	> 100 µM (inactive)	54.5 µM (inactive)	75.5 µM (inactive)	55.7 µM (inactive)	> 100 µM (inactive)	44.9 µM (inactive)	> 100 µM (inactive)	> 100 µM (inactive)	76.7 µM (inactive)
CC1CC(C)(C)CC(OCCN2CCCCC2)(c2ccccc2)C1 (stereo not given)	7.71 µM (inactive)	12.9 µM (inactive)	1.89 µM (inactive)	10.7 µM (inactive)	12.9 µM (inactive)	17.8 µM (inactive)	11.9 µM (inactive)	14.7 µM (inactive)	7.13 µM (inactive)	13.3 µM (inactive)	4.97 µM (inactive)	4.19 µM (inactive)	7.16 µM (inactive)	11.2 µM (inactive)	12.7 µM (inactive)	10.8 µM (inactive)	15.6 µM (inactive)	14.4 µM (inactive)	15.9 µM (inactive)	10 µM (inactive)
CCOC1Oc2ccccc2-c2nc(N)ncc21 (stereo not given)	57.5 µM (inactive)	> 100 µM (inactive)	34.8 µM (inactive)	34.1 µM (inactive)	51.3 µM (inactive)	> 100 µM (inactive)	21.7 µM (inactive)	> 100 µM (inactive)	27 µM (inactive)	33.2 µM (inactive)	24.9 µM (inactive)	> 100 µM (inactive)	43.5 µM (inactive)	37.4 µM (inactive)	30.6 µM (inactive)	44.1 µM (inactive)	33.4 µM (inactive)	39.7 µM (inactive)	59.4 µM (inactive)	42.8 µM (inactive)
CCN(CC)c1ccc2cc(C(=O)Nc3ccccc3)c(=N)oc2c1	> 100 µM (inactive)	> 100 µM (inactive)	> 100 µM (inactive)	> 100 µM (inactive)	> 100 µM (inactive)	> 100 µM (inactive)	> 100 µM (inactive)	> 100 µM (inactive)	> 100 µM (inactive)	> 100 µM (inactive)	> 100 µM (inactive)	> 100 µM (inactive)	> 100 µM (inactive)	> 100 µM (inactive)	> 100 µM (inactive)	> 100 µM (inactive)	> 100 µM (inactive)	> 100 µM (inactive)	> 100 µM (inactive)	> 100 µM (inactive)
